Experimental data: US20020081661A1 (Synaptic Pharmaceutical Corporation, priority 1992, published 2002)
Where two headings read alike, the source gives them in different places. One block for each compound: values may come before it.

Experiments:
[1] = target: T1, rat 5-HT4 (CG-7) receptor (Rattus norvegicus, UniProt Q62758); test: cAMP formation in intact Cos-7 cells transiently expressing CG-7; assay type: cell-based; details: for agonist / antagonist character: CG-7, cAMP response; for I. A. (intrinsic activity): CG-7, maximum response normalized to 5-HT maximum = 1.0
T1 construct: two individual full length cDNA clones, S10-87 and S10-95, were isolated; expressed in transfected cells; host or cells: COS-7 (transient, DEAE-dextran)
Description: (§1) Measurement of cAMP Formation: The transiently transfected Cos-7 cells were incubated in Dulbecco's modified Eagle's medium, 5 mM theophylline, 10 mM Hepes (4-[2-Hydroxyethyl]-1-piperazineethanesulfonic acid), 10 μM pargyline, and/or appropriate concentrations of antagonists for 20 minutes at 37° C., 5% CO2. […] The media was aspirated and the reaction stopped by the addition of 100 mM HCl. The plates were stored at 4° C. for 15 minutes, centrifuged for 5 minutes, 500×g to pellet cellular debris, and the supernatant aliquotted and stored at −20° C. prior to assessment of cAMP formation by radioimmunoassay (cAMP Radioimmunoassay kit, Advanced Magnetics, Cambridge, Mass.). Radioactivity was quantitated using a Packard COBRA Auto Gamma Counter equipped with data reduction software. Functional data was fitted to a four parameter logistic equation to obtain response parameters (EC50, Emax, nH; Inplot, GraphPad, San Diego, Calif.).

[2] = target: T2, rat 5-HT4 (CG-8) receptor (Rattus norvegicus, UniProt Q62758); test: cAMP formation in intact Cos-7 cells transiently expressing CG-8; assay type: cell-based; details: for agonist / antagonist character: CG-8, cAMP response; for I. A. (intrinsic activity): CG-8, maximum response normalized to 5-HT maximum = 1.0
T2 construct: two individual full length cDNA clones, S10-87 and S10-95, were isolated; expressed in transfected cells; host or cells: COS-7 (transient, DEAE-dextran)
Description: as §1

[3] = target: T3, rat 5-HT4 receptor S10-95 (CG-8) (Rattus norvegicus, UniProt Q62758); test: biochemical
Description: (§2) For transient expression, Cos-7 cells were transfected by the DEAE-Dextran method, using 1 μg of DNA /10^6 cells (Warden, D. and H. V. Thorne, 1968).
(§3) Membrane Preparation: Membranes were prepared from transiently transfected COS-7 cells which were grown to 100% confluence. The cells were washed twice with phosphate-buffered saline, scraped from the culture dishes into 5 ml of ice-cold phosphate-buffered saline, and centrifuged at 200×g for 5 min at 4′. The pellet was resuspended in 2.5 ml of ice-cold Tris buffer (20 mM Tris -HCl, pH 7.4 at 23°, 5 mM EDTA), and homogenized by a Wheaton tissue grinder. The lysate was subsequently centrifuged at 200×g for 5 min at 4° to pellet large fragments which were discarded. The supernatant was collected and centrifuged at 40,000×g for 20 min at 4°. The pellet resulting from this centrifugation was washed once in ice-cold Tris wash buffer and finally resuspended in a final buffer containing 50 mM Tris-HCl and 0.5 mM EDTA, pH 7.4 at 23°. Membrane preparations were kept on ice and utilized within two hr for the radioligand binding assays. Protein concentrations were determined by the method of Bradford (1976) using bovine serum albumin as the standard.
(§4) The binding profile of drugs in competition experiments was established using 7 concentrations of compound. Incubation times were 30 min for both saturation and displacement studies. […] Binding was initiated by the addition of 50 μl membrane homogenates (10-20 μg). The reaction was terminated by rapid filtration through presoaked (0.5% polyethyleneimine) filters using 48R Cell Brandel Harvester (Gaithersburg, Md.). Subsequently, filters were washed for 5 sec with ice cold buffer (50 mM Tris HCL, pH 7.4 at 4° C.), dried and placed into vials containing 2.5 ml of Readi-Safe (Beckman, Fullerton, Calif.), and radioactivity was measured using a Beckman LS 6500C liquid scintillation counter. […] Binding data were analyzed by computer-assisted nonlinear regression analysis (Accufit and Accucomp, Lundon Software, Chagrin Falls, Ohio). […]

[4] = target: T4, rat 5-HT4 receptor S10-87 (CG-7) (Rattus norvegicus, UniProt Q62758); test: [3H]5-HT radioligand binding (saturation and displacement), membranes of Cos-7 cells transiently expressing rat S10-87 (CG-7)
Description: (§5) Membrane Preparation: Membranes were prepared from transiently transfected COS-7 cells which were grown to 100% confluence. The cells were washed twice with phosphate-buffered saline, scraped from the culture dishes into 5 ml of ice-cold phosphate-buffered saline, and centrifuged at 200×g for 5 min at 4′. The pellet was resuspended in 2.5 ml of ice-cold Tris buffer (20 mM Tris -HCl, pH 7.4 at 23°, 5 mM EDTA), and homogenized by a Wheaton tissue grinder. The lysate was subsequently centrifuged at 200×g for 5 min at 4° to pellet large fragments which were discarded. The supernatant was collected and centrifuged at 40,000×g for 20 min at 4°. The pellet resulting from this centrifugation was washed once in ice-cold Tris wash buffer and finally resuspended in a final buffer containing 50 mM Tris-HCl and 0.5 mM EDTA, pH 7.4 at 23°. Membrane preparations were kept on ice and utilized within two hr for the radioligand binding assays.
(§6) The binding profile of drugs in competition experiments was established using 7 concentrations of compound. Incubation times were 30 min for both saturation and displacement studies. […] Binding was initiated by the addition of 50 μl membrane homogenates (10-20 μg). The reaction was terminated by rapid filtration through presoaked (0.5% polyethyleneimine) filters using 48R Cell Brandel Harvester (Gaithersburg, Md.). Subsequently, filters were washed for 5 sec with ice cold buffer (50 mM Tris HCL, pH 7.4 at 4° C.), dried and placed into vials containing 2.5 ml of Readi-Safe (Beckman, Fullerton, Calif.), and radioactivity was measured using a Beckman LS 6500C liquid scintillation counter. […] Binding data were analyzed by computer-assisted nonlinear regression analysis (Accufit and Accucomp, Lundon Software, Chagrin Falls, Ohio).

[5] = target: T3, rat 5-HT4 receptor S10-95 (CG-8); test: [3H]GR113808 binding (saturation and displacement), COS-7 membranes, rat clone CG-8; design: two individual full length cDNA clones, S10-87 and S10-95, were isolated; expressed in transfected cells; host or cells: COS-7 (transient, DEAE-dextran); details: for Ki: CG-8, 0.2-0.4 nM [3H]GR113808, single experiment, read-out: Affinity estimate K1
Description: as §5
(§7) The binding profile of drugs in competition experiments was established using 10-12 concentrations of compound. Incubation times were 30 min for both saturation and displacement studies.

[6] = target: T5, human 5-HT4 receptor S10-95 (CG-17) (Homo sapiens, UniProt Q13639); test: [3H]GR113808 saturation binding, human clone CG-17; details: human CG-17, [3H]GR113808 0.005-[…], preliminary; read-out: Kd (saturation analysis)
T5 construct: Isolation of the full length human S10-95 cDNA clone; expressed in transfected cells; host or cells: COS-7 (transient, DEAE-dextran)
Description: as §5, §7

[7] = target: T6, 5-HT4 receptors, human brain (Homo sapiens, UniProt Q13639); details: Waeber et al. (1993); cited from earlier work
T6 construct: host or cells: human brain tissue

[8] = target: T7, 5-HT4 receptors, guinea pig brain tissue (Cavia porcellus, UniProt O70528); details: Waeber et al., 1993, Grossmann et al.; cited from earlier work
T7 construct: host or cells: guinea pig brain tissue

[9] = target: T5, human 5-HT4 receptor S10-95 (CG-17); test: [3H]5-HT displacement binding, human CG-17 clone
Description: as §5, §6

[10] = target: T3, rat 5-HT4 receptor S10-95 (CG-8)
Description: as §2, §3, §4

[11] = target: T3, rat 5-HT4 receptor S10-95 (CG-8); test: [3H]5-HT radioligand binding (displacement), membranes of Cos-7 cells transiently expressing rat S10-95 (CG-8); details: read-out: K1; CG-8, binding data using [3H]5-HT, Table 4
Description: as §2, §3, §4

[12] = target: T4, rat 5-HT4 receptor S10-87 (CG-7); test: [3H]GR113808 binding (saturation and displacement), COS-7 membranes, rat clone CG-7; design: two individual full length cDNA clones, S10-87 and S10-95, were isolated; expressed in transfected cells; host or cells: COS-7 (transient, DEAE-dextran)
Description: as §5, §7

[13] = target: T8, 5-HT4 receptor, rat oesophagus (Rattus norvegicus, UniProt Q62758); details: Grossmann et al., 1993; cited from earlier work
T8 construct: host or cells: rat oesophagus

[14] = read-out: Ks (apparent dissociation constant of antagonist)
[15] = K1 (nM), CG-7, binding data using [3H]5-HT, Table 4

T3 sequence (Q62758 whole entry): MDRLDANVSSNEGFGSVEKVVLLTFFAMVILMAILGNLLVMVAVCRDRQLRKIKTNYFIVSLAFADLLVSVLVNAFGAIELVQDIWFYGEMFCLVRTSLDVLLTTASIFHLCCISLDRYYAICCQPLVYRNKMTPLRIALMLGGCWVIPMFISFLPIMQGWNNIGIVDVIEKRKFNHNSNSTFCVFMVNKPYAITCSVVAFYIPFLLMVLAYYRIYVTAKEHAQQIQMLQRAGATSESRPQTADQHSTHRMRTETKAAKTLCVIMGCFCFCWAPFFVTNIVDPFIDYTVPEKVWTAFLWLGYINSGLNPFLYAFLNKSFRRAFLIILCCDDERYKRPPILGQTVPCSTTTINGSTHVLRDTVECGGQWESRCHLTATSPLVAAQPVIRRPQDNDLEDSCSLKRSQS
T2 sequence (Q62758 whole entry): as above
T5 sequence (Q13639 whole entry): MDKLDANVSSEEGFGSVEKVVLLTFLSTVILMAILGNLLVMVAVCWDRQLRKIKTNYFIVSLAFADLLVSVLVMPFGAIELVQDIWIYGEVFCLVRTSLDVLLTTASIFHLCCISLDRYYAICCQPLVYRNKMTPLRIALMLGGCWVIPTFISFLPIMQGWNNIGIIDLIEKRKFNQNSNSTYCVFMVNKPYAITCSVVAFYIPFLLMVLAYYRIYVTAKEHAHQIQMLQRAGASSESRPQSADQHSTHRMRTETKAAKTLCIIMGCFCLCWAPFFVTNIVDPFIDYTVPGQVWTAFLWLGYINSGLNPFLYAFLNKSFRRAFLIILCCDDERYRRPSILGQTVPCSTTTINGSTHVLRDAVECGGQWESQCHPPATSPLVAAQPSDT
T4 sequence (Q62758 1-387 isoform Q62758-2): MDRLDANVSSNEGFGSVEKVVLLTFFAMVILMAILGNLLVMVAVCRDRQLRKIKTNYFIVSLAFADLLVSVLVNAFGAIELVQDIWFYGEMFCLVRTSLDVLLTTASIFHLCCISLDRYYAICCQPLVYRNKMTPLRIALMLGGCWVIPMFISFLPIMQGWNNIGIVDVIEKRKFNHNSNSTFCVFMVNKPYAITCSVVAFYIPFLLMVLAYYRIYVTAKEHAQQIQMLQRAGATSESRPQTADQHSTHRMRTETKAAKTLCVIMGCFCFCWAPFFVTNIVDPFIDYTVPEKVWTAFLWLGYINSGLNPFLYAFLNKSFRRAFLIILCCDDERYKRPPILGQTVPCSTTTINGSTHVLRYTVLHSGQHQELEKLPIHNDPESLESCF
T1 sequence (Q62758 1-387 isoform Q62758-2): as above
T8 sequence (Q62758 whole entry): as the sequence (Q62758 whole entry) above
T7 sequence (O70528 whole entry): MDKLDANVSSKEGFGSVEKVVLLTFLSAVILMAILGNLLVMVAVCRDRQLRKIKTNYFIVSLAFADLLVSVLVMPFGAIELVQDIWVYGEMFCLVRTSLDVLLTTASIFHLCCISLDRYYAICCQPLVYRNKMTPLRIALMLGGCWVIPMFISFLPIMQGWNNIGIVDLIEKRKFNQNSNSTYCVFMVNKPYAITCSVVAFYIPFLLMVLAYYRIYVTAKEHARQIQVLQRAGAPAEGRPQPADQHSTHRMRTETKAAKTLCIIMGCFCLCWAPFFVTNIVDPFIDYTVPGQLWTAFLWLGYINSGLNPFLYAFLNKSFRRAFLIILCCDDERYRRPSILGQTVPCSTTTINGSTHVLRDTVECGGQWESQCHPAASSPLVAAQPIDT
T6 sequence (Q13639 whole entry): as the sequence (Q13639 whole entry) above

fold lower affinity in the functional assay as compared to the binding experiments ([1]; CG-7): ~10 fold
agonist / antagonist character [1]: silent antagonist
I. A. (intrinsic activity) [1]: 0
Kd [1, 14]: 962 ± 244 nM
fold lower affinity in the functional assay as compared to the binding experiments ([2]; CG-8): approximately 6 fold
agonist / antagonist character [2]: silent antagonist
I. A. (intrinsic activity) [2]: 0
Kd [2, 14]: 607 ± 30 nM
Ki [3]: 138 ± 26 nM
Ki ([4]; Affinity constants (Ki), CG-7, 10 nM [3H]5-HT, mean ± SEM, >1000 estimated from one point displacement at 1 uM): 115 ± 12 nM
Ki [4, 15]: 115 ± 12 nM
Ki [5]: 529 nM
Compound: CN1[C@@H]2CC[C@H]1C[C@@H](OC(=O)c1c[nH]c3ccccc13)C2 [ICS 205930]

Compound: Cn1cc(C(=O)OCC2CCN(CCNS(C)(=O)=O)CC2)c2ccccc21 [[^3H]GR113808]
Kd [6]: 0.2 nM
Kd [7]: 0.23 to 0.37 nM
Kd [8]: 0.13 to 0.2 nM

Compound: COc1cc(N)c(Cl)cc1C(=O)NC1CN2CCC1CC2 (stereo not shown) [Zacopride, zacopride]
fold higher affinity for the human CG-17 clone ([9]; human CG-17 compared with rat clones): about 7 fold
Ki ([9]; read-out: Ki): 17 nM
agonist / antagonist character [1]: partial agonists
I. A. (intrinsic activity) [1]: 1.1
fold lower affinity than cisapride ([1]; CG-7, stimulation of adenylate cyclase): ~15 fold
times less potent than 5-HT ([1]; CG-7, stimulation of basal cAMP release): ~100 fold
EC50 ([1]; CG-7, stimulation of basal cAMP release, means ± S.E.M. of three experiments, read-out: EC50): 2740 nM
agonist / antagonist character [2]: partial agonists
I. A. (intrinsic activity) [2]: 1.0
EC50 ([2]; CG-8, stimulation of basal cAMP release, means ± S.E.M. of three experiments, read-out: EC50): 239 ± 33 nM
Ki [10]: 136 ± 5 nM
Ki [11]: 136 ± 5 nM
Ki [4]: 130 ± 10 nM
Ki [4, 15]: 130 ± 10 nM
Ki ([12]; CG-7, 0.2-0.4 nM [3H]GR113808, single experiment, read-out: Affinity estimate K1): 729 nM
BH (percentage of high affinity sites) ([12]; CG-7, [3H]GR113808): 68%
nH (Hill coefficient) ([12]; CG-7, [3H]GR113808): nH = 0.80
Ki ([12]; CG-7, [3H]GR113808, read-out: KH (affinity for the high affinity state)): 424 nM
Ki ([12]; CG-7, [3H]GR113808, read-out: KL (affinity for the low affinity state)): 2760 nM
Ki [5]: 820 nM
nH (Hill coefficient) ([5]; CG-8, [3H]GR113808): nH = 0.85

Compound: Cn1cc(C(=O)OCC2CCN(CCNS(C)(=O)=O)CC2)c2ccccc21 [GR113808]
affinity from functional receptor assays [13]: about 0.3 nM
